Laboratory results as given in patent publication US10005844B2, “Polynucleotides encoding anti-Notch1 NRR antibody polypeptides” (Genentech, Inc., priority 2007, dated 2018).

Assays:
Type in all cases: cell-based
Mouse C2C12 myoblasts = assay: C2C12 myoblast differentiation assay; conditions: Antibody A 200 ng/ml, Compound E 1 uM, four days, FIG. 9 and 10
Experimental: Mouse C2C12 myoblasts differentiate into myotubes when treated with differentiation medium. Co-culture with Jagged1 ligand-expressing cells inhibits differentiation by stimulating Notch signaling.
In particular, mouse C2C12 myoblast cells were plated in a 24-well tissue culture dish with a sterile round, 10 mm cover slip in the bottom at 2.5×10^4 cells per ml, using 1 ml per well. Cells were allowed to attach and grow for 22 hours in growth medium (DMEM with 10% FBS) at 37° C., 5% CO2. The growth medium was then aspirated and differentiation medium (DM) was added (DMEM with 6% Horse Serum). Cells were treated with: A. DM alone; B. DM with 3T3-J1 cells; C. […] Cells were incubated at 37° C., 5% CO2 under these conditions for four days. Cover slips were retrieved, and cells were fixed with 4% paraformaldehyde and permeablized with 0.2% Triton X-100 in PBS. Cells were then blocked with 10% FBS in PBS. An antibody recognizing Myosin Heavy Chain (Millipore, Anti-Myosin HC, clone A4.1025 ascites) and a goat anti-mouse IgG (H+L) secondary antibody conjugated to Alexa® 488 (Molecular Probes) was used to stain the differentiated myotubes. DAPI was used to counter-stain the nuclei. Images of three different fields were taken for each condition. Metamorph software (Molecular Devices) was used to count the number of nuclei and the area of Alexa® 488 stain. […]

MT-3 = assay: CellTiter-Glo Luminescent Cell Viability Assay, MT-3; conditions: breast carcinoma line, FIG. 17
From the text: (§1) The effects of anti-Notch1 NRR and the gamma secretase inhibitors DAPT and “Compound E” (CmpE) on a panel of cancer cell lines were examined. […] This assay determines the number of viable cells in culture based on quantitation of ATP present, which is an indication of metabolically active cells. Luminescence is quantified as “relative luminescent units” in FIG. 17 (y-axis).

OVCAR-3 = assay: CellTiter-Glo Luminescent Cell Viability Assay, OVCAR-3; conditions: ovarian cancer cell line, FIG. 17
From the text: as §1

Compound	Differentiation of C2C12 myoblasts blocked by Jagged1 co-culture (Mouse C2C12 myoblasts)	Cell viability (ATP levels), MT-3 (MT-3)	Cell viability (ATP levels), OVCAR-3 (OVCAR-3)
C[C@H](NC(=O)Cc1cc(F)cc(F)c1)C(=O)N[C@H]1N=C(c2ccccc2)c2ccccc2N(C)C1=O [Compound E]	restored differentiation	reduced ATP levels	reduced ATP levels
C[C@H](NC(=O)Cc1cc(F)cc(F)c1)C(=O)N[C@H](C(=O)OC(C)(C)C)c1ccccc1 [DAPT, N—[N-(3,5-difluorophenacetyl)-L-alanyl]-S-phenylglycine t-butyl ester]	–	reduced ATP levels	reduced ATP levels
